From ChEMBL document CHEMBL6134803, “ZLDI-8 facilitates pexophagy by ROS-mediated activation of TFEB and ATM in HeLa cells” (Bioorg Med Chem Lett, 2025)
The source made the active and inactive calls. The calls are words filed in the database; no cut-off is given here.

Legend:
Format in all cases: functional, cell-based
HeLa [1] = assay: Induction of autophagy in human HeLa cells assessed as reduction in peroxisomes number golgi apparatus at 5 uM incubated for 48 hrs in presence of FTCD antibody by fluorescence microscopic analysis
HeLa [2] = assay: Induction of pexophagy in ATG5 knockout human HeLa cells assessed as decrease in LC3I protein expression at 5 uM incubated for 48 hrs by Western blot analysis
HeLa [3] = assay: Induction of pexophagy in wild-type human HeLa cells assessed as […] in LC3II protein expression at 5 uM incubated for 48 hrs by Western blot analysis
HeLa [4] = assay: Induction of autophagy in human HeLa cells assessed as reduction in peroxisomes number in mitochondria at 5 uM incubated for 48 hrs in presence of TOMM20 antibody by fluorescence microscopic analysis
HeLa [5] = assay: Induction of pexophagy in ATG5 knockout human HeLa cells assessed as decrease in ABCD3 protein expression at 5 uM incubated for 48 hrs by Western blot analysis
HeLa [6] = assay: Induction of pexophagy in ATG5 knockout human HeLa cells assessed as reduction in peroxisomes at 5 uM incubated for 48 hrs by immunostaining based analysis
HeLa [7] = assay: Induction of autophagic flux in human HeLa cells at 5 uM preincubated for 36 hrs followed by addition of Bafilomycin A1 and measured after 12 hrs by Western blot analysis; details: time 48.0 hrs
HeLa [8] = assay: Induction of TFEB nuclear translocation in human HeLa cells assessed as decrease in TFEB phoshorylation at 5 uM cotreated with ROS scavenger NAC measured at 48 hrs by Western blot analysis
HeLa [9] = assay: Induction of pexophagy in human HeLa cells at 5 uM measured at 48 hrs by immunostaining based analysis
HeLa [10] = assay: Induction of pexophagy in human HeLa cells assessed as increase in ATM phosphorylation at serine 1981 residue at 5 uM measured at 48 hrs by Western blot analysis
HeLa [11] = assay: Induction of pexophagy in human HeLa cells assessed as reduction in peroxisome numbers at 5 uM incubated for 48 hrs in presence of anti-ABCD3 antibody by immunostaining based analysis
HeLa [12] = assay: Induction of pexophagy in human HeLa cells expressing HyPer-PTS1 assessed as increase in peroxisomal ROS levels at 5 uM incubated for 48 hrs in presence of ROS scavenger NAC by fluorescence based analysis
HeLa [13] = assay: Induction of pexophagy in human HeLa cells assessed as increase in ROS levels at 5 uM incubated for 48 hrs in presence of ROS scavenger NAC by DCFH-DA staining based assay
TERT-RPE1 = assay: Induction of pexophagy in human TERT-RPE1 cells expressing mRFP-EGFP-SKL assessed as increase in red-only puncta at 5 uM incubated for 48 hrs by fluorescence microscopic analysis
HeLa [14] = assay: Induction of TFEB nuclear translocation in human HeLa cells expressing EGFP-TFEB at 5 uM measured at 48 hrs in presence of ROS scavenger NAC by fluorescence microscopic analysis
HeLa [15] = assay: Induction of pexophagy in human HeLa cells expressing HyPer-PTS1 assessed as reduction in peroxisome numbers at 5 uM incubated for 48 hrs by immunostaining based analysis
HeLa [16] = assay: Induction of pexophagy in human HeLa cells expressing HyPer-PTS1 assessed as reduction in peroxisome numbers at 5 uM incubated for 48 hrs in presence of ROS scavenger NAC by immunostaining based analysis
HeLa [17] = assay: Induction of TFEB nuclear translocation in human HeLa cells assessed as decrease in TFEB phoshorylation at 5 uM measured at 48 hrs by Western blot analysis
HeLa [18] = assay: Induction of pexophagy in wild-type human HeLa cells assessed as decrease in LC3I protein expression at 5 uM incubated for 48 hrs by Western blot analysis
HeLa [19] = assay: Induction of pexophagy in wild-type human HeLa cells assessed as reduction in peroxisomes at 5 uM incubated for 48 hrs by immunostaining based analysis
HeLa [20] = assay: Induction of pexophagy in ATG5 knockout human HeLa cells assessed as […] in LC3II protein expression at 5 uM incubated for 48 hrs by Western blot analysis
HeLa [21] = assay: Induction of pexophagy in wild-type human HeLa cells assessed as decrease in ABCD3 protein expression at 5 uM incubated for 48 hrs by Western blot analysis
HeLa [22] = assay: Induction of pexophagy in human HeLa cells assessed as reduction in peroxisomes at 5 uM incubated for 48 hrs treated with Bafilomycin A1 by immunostaining based analysis
HeLa [23] = assay: Induction of autophagy in human HeLa cells assessed as reduction in peroxisomes number in endoplasmic reticulum at 5 uM incubated for 48 hrs in presence of P4HB antibody by fluorescence microscopic analysis
HeLa [24] = assay: Induction of pexophagy in human HeLa cells at 5 uM cotreated with KU55933 measured at 48 hrs by immunostaining based analysis
HeLa [25] = assay: Induction of pexophagy in human HeLa cells assessed as increase in ATM phosphorylation at serine 1981 residue at 5 uM cotreated with ROS scavenger NAC measured at 48 hrs by Western blot analysis

With Cc1ccc(OCCn2c(C)c(C=C3C(=O)NC(=S)NC3=O)c3ccccc32)c(C)c1 as the compound, how does the Activity (HeLa [1]) read?
The Activity was “Active”.

And the Activity (HeLa [2])?
Its Activity is “inactive”.

And the Activity (HeLa [3])?
Its Activity is “Active”.

What about the Activity (HeLa [4]) of the same compound?
The Activity was “Active”.

What about the Activity (HeLa [5]) of the same compound?
Its Activity is “inactive”.

What about the Activity (HeLa [6]) of the same compound?
Its Activity is “inactive”.

And the Activity (HeLa [7])?
Its Activity is “Active”.

What about the Activity (HeLa [8]) of the same compound?
The Activity was “inactive”.

And the Activity (HeLa [9])?
Its Activity is “Active”.

What about the Activity (HeLa [10]) of the same compound?
The Activity was “Active”.

And the Activity (HeLa [11])?
Its Activity is “Active”.

What about the Activity (HeLa [12]) of the same compound?
Its Activity is “Active”.

What about the Activity (HeLa [13]) of the same compound?
The Activity was “Active”.

What about the Activity (TERT-RPE1) of the same compound?
Its Activity is “Active”.

And the Activity (HeLa [14])?
The Activity was “Active”.

And the Activity (HeLa [15])?
The Activity was “Active”.

What about the Activity (HeLa [16]) of the same compound?
The Activity was “inactive”.

What about the Activity (HeLa [17]) of the same compound?
The Activity was “Active”.

And the Activity (HeLa [18])?
The Activity was “Active”.

And the Activity (HeLa [19])?
The Activity was “Active”.

What about the Activity (HeLa [20]) of the same compound?
Its Activity is “inactive”.

And the Activity (HeLa [21])?
Its Activity is “Active”.

What about the Activity (HeLa [22]) of the same compound?
Its Activity is “Active”.

And the Activity (HeLa [23])?
Its Activity is “Active”.

And the Activity (HeLa [24])?
Its Activity is “Active”.

What about the Activity (HeLa [25]) of the same compound?
Its Activity is “inactive”.
